Experimental data published in patent publication US20150038435A1, “N-TERMINALLY MODIFIED OLIGOPEPTIDES AND USES THEREOF” (Novo Nordisk A/S, priority 2012, published 2015).
Each block holds one molecule with its values, some of them ahead of it. Starred links: 1 amine or outer side, 2 acyl side, 3 side chain; linkers in the order of their positions; H or OH if unused. Non-standard residues stand in square brackets, D forms with d. Residues, ends and D or L forms follow the SMILES beside them. *: point of attachment. γGlu = O=C(O)[C@H](CCC(=O)[*:2])N[*:1]; Palmitoyl = CCCCCCCCCCCCCCCC(=O)*; Myristoyl = CCCCCCCCCCCCCC(=O)*; Decanoyl = CCCCCCCCCC(=O)*

Assays:
Chymotrypsin [1] = assay: Inhibition of enzymatic degradation of a model GLP-1 (FRET substrate) by chymotrypsin; format: biochemical; details: for Slope of the initial increase in fluorescence obtained during incubation with 0.001 mg/ml Chymotrypsin: compound 1 mM; for EC50: read-out: EC50 Chymotrypsin (0.001 mg/ml), 0.001 mg/ml chymotrypsin, 37° C., ± standard error if at least 3 measurements
In short: (§1)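 MCA/DNP-labelled model GLP-1 FRET substrate (10 μl of 100 μM stock) in Dulbecco's PBS at 37° C with varying acylated peptide; fluorescence (ex 320/em 405 nm) read every minute for ≥30 min. Initial slopes from linear regression, duplicates averaged; EC50 by sigmoidal logistic fit of slope vs concentration.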

Trypsin = assay: Inhibition of enzymatic degradation of a model GLP-1 (FRET substrate) by trypsin; format: biochemical; details: for Slope of the initial increase in fluorescence obtained during incubation with 0.001 mg/ml Trypsin: compound 1 mM; for EC50: read-out: EC50 Trypsin (0.001 mg/ml), 0.001 mg/ml trypsin, 37° C.
In short: as §1

GI juice = assay: Inhibition of GI juice degradation of insulin analogue and GLP-1 analogue; format: biochemical; details: rat GI juice
Procedure: 96 well plates were coated by incubating with 0.4% Bovine serum albumin (BSA) solution for minimum of 60 min. […] 1% TFA), 30 μl of a substrate (100 μM insulin analogue or GLP-1 analogue in buffer) and 30 μl of N-terminally acylated peptide or oligopeptide of the invention (10 mM) were added. The plates were pre-incubated (before adding GI juice) for 60 min at 37° C. After addition of 30 μl of GI juice (10-times diluted in buffer), the plates were incubated for 60 min/37° C. on shaker. […] 1% TFA and spun down in plates (4500 rpm for 10 min). Samples were diluted 5 times with the buffer prior to LC-MS analysis. Standard samples (0.1, 0.5, 1.0, 5.0, 10.0 μM) were prepared and treated as the samples. Standard curve was analysed both at the beginning and the end of the sequence. Two replicates of each tested conditions were included. Ion suppression was assessed by analyzing a standard at 1 μM and at 10 μM with 1 mM inhibitor present. Intact insulin or GLP-1 analoues were determined at each sample. The results were plotted against the incubation time. […] The half-lives were expressed relative to the half-live of the insulin or GLP-1 analogue without inhibitor present by dividing the half-lives obtained in the presence of inhibitor with those obtained in the absence of inhibitors. GI juice was prepared from male Sprague Dawley rats (200-250 g) by excising approximately 20 cm piece of mid jejunum and rinsing the inside with 2.5 ml 0.9% sodium chloride solution. The sodium chloride solution was collected in a centrifuge tube, pooled from all rats (20) and centrifuged at 4500 rpm./10 min/4° C. The supernatant was aliquoted in tubes and stored at −80° C.
A14E, B25H, B29K(N(eps)Octadecanedioyl-γGlu-OEG-OEG), desB30 human insulin and N-epsilon26-[2-(2-{2-[2-(2-{2-[(S)-4-Carboxy-4-(17-carboxyheptadecanoylamino)-butyrylamino]ethoxy}ethoxy)acetylamino]ethoxy}ethoxy)acetyl][Aib8,Arg34]GLP-1-(7-37) were used as standards in this assay.
For experiments repeated more than two times, standard deviation is given

[2] = Hydrophobicity: retention time during reverse phase HPLC; format: physicochemical; details: Acquity CSH C18; pH 7.2 buffer/CH3CN gradient; 40° C.
Excerpt: The retention time (RT) during reverse phase HPLC was taken as a measure of hydrophobicity of an N-terminally modified peptide or oligopeptide of the invention, where the connection is: The longer the RT, the more hydrophobic N-terminally modified peptide or oligopeptide. The following running conditions were applied during HPLC analysis:
Buffer B: 70% (v/v) aq. CH3CN

Chymotrypsin [3] = assay: Inhibition of enzymatic degradation of a chromogenic substrate (Example 202); format: biochemical; details: substrate N-succinyl-Ala-Ala-Pro-Phe-p-Nitroanilide
Excerpt: The use of chromogenic substrates to monitor activity of proteolytic enzymes is known in the field (for example DelMar, E. G., et al., Anal. Biochem., 99, 316-320, (1979)). For example, N-succinyl-Ala-Ala-Pro-Phe-p-Nitroanilide is commonly used substrate for measuring chymotrypsin activity. Enzymatic cleavage of 4-nitroanilide substrates yields 4-nitroaniline (yellow color under alkaline conditions).
An assay following the increase in absorbance at 395 nm as a function of time was established in 96 well format using Varioskan Flash Multimode Meter (Thermo Scientific). Each well contained 70 μl of Dulbecco's phosphate buffer saline (Invitrogen catalogue #14190-094), 10 μl of N-succinyl-Ala-Ala-Pro-Phe-p-Nitroanilide (Sigma cat# S 7388) in DMSO (different concentrations were used in order to obtain the inhibition constant), 10 μl of N-terminally acylated peptide or oligopeptide of the invention in varying concentration and 10 μl of a stock solution of an enzyme (chymotrypsin, trypsin, elastase, etc.). The incubations were performed at 37° C. Absorbance at 395 nm was measured immediately after addition of the enzyme to the 96 well plate and also every minute for the next 80 minutes. The concentration of the enzyme was optimized to allow determination of slopes for the time course of initial absorbance increase with and without added inhibitors. The slopes were determined by linear regression of the linear part of the fluorescence trace (for example, the first 10 min of the reaction). Each assay was performed in duplicate and average of the two traces was included in the calculations. The relative effect of N-terminally acylated peptide or oligopeptides of the invention on enzymatic degradation of N-succinyl-Ala-Ala-Pro-Phe-p-Nitroanilide was obtained by comparison of the slopes achieved by the same concentration of the N-terminally acylated peptide or oligopeptides. […] This was done by plotting the slopes achieved with different concentrations of the N-terminally acylated peptide or oligopeptides of the invention as a function of their concentrations and fitting the experimental results using, for example, sigmoidal logistic regression (2 parameters, Sigma Plot v 11). Inhibition constants for the interaction between the N-terminally acylated peptide or oligopeptides of the invention and proteolytic enzymes were also obtained by performing the assay described above with varying concentrations of the inhibitor and substrate and analyzing the results, for example, by double reciprocal transformation as known to the person skilled in the art and described for example in Hubalek, F. et al., J. Med. Chem. 47, 1760-1766 (2004).

[4] = Stability of N-terminally acylated peptides or oligopeptides in GI juice; format: in vitro ADME; details: GI juice (jejunum extract); degradation of the compound itself in jejunum extract from rat; read-out: t 1/2 in rat GI juice
Procedure: 96 well plates were coated by incubating with 0.4% Bovine serum albumin (BSA) solution for minimum of 60 min. To each well, 210 μl of buffer (Hank's balanced salt solution-4-(2-hydroxyethyl)-1-piperazineethanesulfonic acid (HBSS-HEPES) buffer) with 0.005% Tween 20 and 0.001% BSA, pH 6.5 precipitated with 3 vol. cold 96% ethanol (EtOH) w. 1% TFA), 30 μl of a substrate (100 μM insulin analogue or GLP-1 analogue in buffer) and 30 μl of N-terminally acylated peptide or oligopeptide of the invention (10 mM) were added. The plates were pre-incubated (before adding GI juice) for 60 min at 37° C. After addition of 30 μl of GI juice (10-times diluted in buffer), the plates were incubated for 60 min/37° C. on shaker. Samples (40 μl) were taken at 0, 5, 10, 20, 30 and 60 min, stopped with 3 vol. cold 96% EtOH w. 1% TFA and spun down in plates (4500 rpm for 10 min). Samples were diluted 5 times with the buffer prior to LC-MS analysis. Standard samples (0.1, 0.5, 1.0, 5.0, 10.0 μM) were prepared and treated as the samples. Standard curve was analysed both at the beginning and the end of the sequence. Two replicates of each tested conditions were included. Ion suppression was assessed by analyzing a standard at 1 μM and at 10 μM with 1 mM inhibitor present. Intact insulin or GLP-1 analoues were determined at each sample. The results were plotted against the incubation time. Half-lives of the insulin or GLP-1 analogues were determined by nonlinear regression of the results using, for example Graph Pad Prism. The half-lives were expressed relative to the half-live of the insulin or GLP-1 analogue without inhibitor present by dividing the half-lives obtained in the presence of inhibitor with those obtained in the absence of inhibitors. GI juice was prepared from male Sprague Dawley rats (200-250 g) by excising approximately 20 cm piece of mid jejunum and rinsing the inside with 2.5 ml 0.9% sodium chloride solution. The sodium chloride solution was collected in a centrifuge tube, pooled from all rats (20) and centrifuged at 4500 rpm./10 min/4° C. The supernatant was aliquoted in tubes and stored at −80° C.
Degradation of the N-terminally fatty acid modified peptide or oligopeptide of the invention themselves in jejunum extract from rat (GI juice) and determination of half-lives, was measured as described above (example 200).

Molecule: CCCCCCCCCCCCCC(=O)N[C@@H](CCC(=O)O)C(=O)N[C@@H](C)C(=O)N[C@@H](C)C(=O)N1CCC[C@H]1C(=O)N[C@@H](Cc1ccccc1)C(=O)O [Example 13, N-tetradecanoyl-Glu-Ala-Ala-Pro-Phe-OH] (Myristoyl-EAAPF-OH)
Slope of the initial increase in fluorescence obtained during incubation with 0.001 mg/ml Chymotrypsin (Chymotrypsin [1]): 0.00
Slope of the initial increase in fluorescence obtained during incubation with 0.001 mg/ml Trypsin (Trypsin): 0.12
Half Life fold increase (over solution w/o N-terminally acylated (oligo)peptide) (GI juice; compound 1 mM): 3.4
Half Life of insulin analogue (GI juice; compound 1 mM, 37° C.): 7.2 min
RT (retention time during reverse phase HPLC as a measure of hydrophobicity) [2]: 5.19 min

Molecule: CCCCCCCCCCCCCC(=O)N[C@H](C)C(=O)N[C@H](C)C(=O)N1CCC[C@@H]1C(=O)N[C@H](Cc1ccccc1)C(=O)O [Example 2, N-tetradecanoyl-DAla-DAla-DPro-DPhe-OH] (Myristoyl-[dA][dA][dP][dF]-OH)
Slope of the initial increase in fluorescence obtained during incubation with 0.001 mg/ml Chymotrypsin (Chymotrypsin [1]): 0.05
EC50 (Chymotrypsin [1]): 85 µM
Slope of the initial increase in fluorescence obtained during incubation with 0.001 mg/ml Trypsin (Trypsin): 0.15
EC50 (Trypsin): 112 µM
half-life [4]: 610 min
RT (retention time during reverse phase HPLC as a measure of hydrophobicity) [2]: 9.74 min

B1: Soya bean trypsin inhibitor: soya bean trypsin inhibitor (Kunitz type, SBTI), protease inhibitor described in the public domain (protein, UniProt P01070 25-205, looked up)
Trypsin inhibitor A: DFVLDNEGNPLENGGTYYILSDITAFGGIRAAPTGNERCPLTVVQSRNELDKGIGTIISSPYRIRFIAEGHPLSLKFDSFAVIMLCVGIPTEWSVVEDLPEGPAVKIGENKDAMDGWFRLERVSDDEFNNYKLVFCPQQAEDDKCGDIGISIDHDDGTRRLVVSKNKPLVVQFQKLDKESL
Half Life of insulin analogue (GI juice; inhibitor 0.1%, ± standard deviation): 505.3 ± 309.2 min

Continued, in another order:

Ki (Chymotrypsin [3]): 850 µM
Molecule: N-decanoyl-Ala-Ala-Pro-Phe-OH (Decanoyl-AAPF-OH) [Example 33]
RT (retention time during reverse phase HPLC as a measure of hydrophobicity) [2]: 4.93 min

EC50 (Chymotrypsin [1]): 45 µM
EC50 (Trypsin): 40 µM
RT (retention time during reverse phase HPLC as a measure of hydrophobicity) [2]: 7.5 min
Molecule: CCCCCCCCCCCCCCCC(=O)N[C@@H](CCC(=O)N[C@@H](C)C(=O)N[C@@H](C)C(=O)N1CCC[C@H]1C(=O)N[C@@H](Cc1ccccc1)C(=O)O)C(=O)O [Example 135, N-hexadecanoyl-γGlu-Ala-Ala-Pro-Phe-OH] ({Palmitoyl-γGlu}-AAPF-OH)
Half Life fold increase (over solution w/o N-terminally acylated (oligo)peptide) (GI juice; compound 1 mM): 3.8
Half Life of GLP-1 analogue (GI juice; compound 1 mM, 37° C.): 0.9 min
Half Life of insulin analogue (GI juice; compound 1 mM, 37° C.): 9.2 min

EC50 (Chymotrypsin [1]): 322 µM
half-life [4]: > 1000 min
Molecule: CCCCCCCCCCCCCC(=O)N[C@@H](CCC(=O)N[C@H](C)C(=O)N1CCC[C@@H]1C(=O)N[C@H](Cc1ccccc1)C(=O)O)C(=O)O [Example 148, N-tetradecanoyl-γGlu-DAla-DPro-DPhe-OH] ({Myristoyl-γGlu}-[dA]-[dP]-[dF]-OH)

EC50 (Chymotrypsin [1]): 32 µM
EC50 (Trypsin): 102 µM
half-life [4]: 4.5 min
Molecule: CCCCCCCCCCCCCC(=O)N[C@@H](Cc1c[nH]cn1)C(=O)N[C@@H](C)C(=O)N[C@@H](CCCNC(=N)N)C(=O)N1CCC[C@H]1C(=O)N[C@@H](Cc1ccccc1)C(=O)O [Example 178, N-tetradecanoyl-His-Ala-Arg-Pro-Phe-OH] (Myristoyl-HARPF-OH)

EC50 (Chymotrypsin [1]): 144 µM
EC50 (Trypsin): 44 µM
half-life [4]: 4.4 min
RT (retention time during reverse phase HPLC as a measure of hydrophobicity) [2]: 5.29 min
Molecule: CCCCCCCCCCCCCC(=O)N[C@@H](CCC(=O)N[C@@H](C)C(=O)N1CCC[C@H]1C(=O)N[C@@H](Cc1ccccc1)C(=O)O)C(=O)O [Example 23, N-tetradecanoyl-γGlu-Ala-Pro-Phe-OH] ({Myristoyl-γGlu}-Ala-Pro-Phe-OH)
